Entries after “also recorded” stand apart in the source; their conditions may differ. Where two headings read alike, the source gives them in different places.
Columns and labels:
[1] = Solubility assessment of Sample 1 (majorly Form 1) in 24 solvent systems; type: physicochemical; details: for solubility: thermodynamic from solid
Experimental: Solubility assessment was carried out on the Sample 1 of RAD1901-2HCl (majorly Form 1 shown by XRPD) in 24 solvent systems in HPLC vials (sample IDs: A1 to A24). RAD1901-2HCl (25 mg) was treated with increasing volumes of solvent until the material fully dissolved or until a maximum of 60 vol had been used (Table 13).
After each addition of solvent, the system was stirred for 5 to 10 minutes at 25° C., then shaken at 50° C. for 5 to 10 minutes, and observations made. Samples were allowed to stand at room temperature for 5 min before the addition of a new aliquot of solvent. After the assessment was completed, the suspensions obtained were matured (maturation) and the clear solutions were cooled (cooling) and slowly evaporated (evaporation) as described below. All solids recovered from maturation, cooling and evaporation experiments were analyzed by high resolution XRPD.

[2] = Storage at elevated temperature/humidity, analysed by XRPD; type: physicochemical
Experimental: Samples 1 and 2 were characterized by XRPD at various conditions. XRPD patterns were collected for the samples at ambient condition as the samples were provided; at variable temperature (VT-XRPD); at variable humidity (VH-XRPD); after the samples were exposed to 40° C./75% RH for 1 week and 25° C./97% RH for 1 week, respectively; and after a GVS measurement wherein the samples were exposed to 0-90% RH. Samples 1 and 2 were also characterized by ^1H NMR, TGA, DSC, KF, IC, GVS (exposed to 0-90% RH), PLM, SEM, and HPLC (Table 5).

- solubility ([1]; acetonitrile, 50 °C, organic solvent or mixture, Acetonitrile, sample ID A19, read-out: Solubility assessment 40 vol.): < 25 mg/mL
- solubility ([1]; acetonitrile, 50 °C, organic solvent or mixture, Acetonitrile, sample ID A19, read-out: Solubility assessment 60 vol.): < 16.7 mg/mL
- solubility ([1]; dichloromethane, 50 °C, organic solvent or mixture, Dichloromethane, sample ID A18, read-out: Solubility assessment 10 vol.): < 100 mg/mL
- solubility ([1]; dichloromethane, 50 °C, organic solvent or mixture, Dichloromethane, sample ID A18, read-out: Solubility assessment 20 vol.): < 50 mg/mL
- solubility ([1]; dichloromethane, 50 °C, organic solvent or mixture, Dichloromethane, sample ID A18, read-out: Solubility assessment 40 vol.): < 25 mg/mL
- solubility ([1]; dichloromethane, organic solvent or mixture, Dichloromethane, sample ID A18, read-out: Solubility assessment 60 vol.): < 16.7 mg/mL
- solubility ([1]; dimethyl sulfoxide, 50 °C, organic solvent or mixture, Dimethyl sulfoxide, sample ID A11, read-out: Solubility assessment 10 vol.): > 100 mg/mL
- solubility ([1]; ethanol, 50 °C, organic solvent or mixture, Ethanol, sample ID A10, read-out: Solubility assessment 10 vol.): < 100 mg/mL
- solubility ([1]; ethanol, 50 °C, organic solvent or mixture, Ethanol, sample ID A10, read-out: Solubility assessment 20 vol.): < 50 mg/mL
- solubility ([1]; ethanol, 50 °C, organic solvent or mixture, Ethanol, sample ID A10, read-out: Solubility assessment 40 vol.): < 25 mg/mL
- solubility ([1]; ethanol, organic solvent or mixture, Ethanol, sample ID A10, read-out: Solubility assessment 60 vol.): < 16.7 mg/mL
- solubility ([1]; ethyl acetate, 50 °C, organic solvent or mixture, Ethyl acetate, sample ID A3, read-out: Solubility assessment 10 vol.): < 100 mg/mL
- solubility ([1]; ethyl acetate, 50 °C, organic solvent or mixture, Ethyl acetate, sample ID A3, read-out: Solubility assessment 20 vol.): < 50 mg/mL
- solubility ([1]; ethyl acetate, 50 °C, organic solvent or mixture, Ethyl acetate, sample ID A3, read-out: Solubility assessment 40 vol.): < 25 mg/mL
- solubility ([1]; ethyl acetate, organic solvent or mixture, Ethyl acetate, sample ID A3, read-out: Solubility assessment 60 vol.): < 16.7 mg/mL
- solubility ([1]; isopropyl acetate, 50 °C, organic solvent or mixture, Isopropyl acetate, sample ID A4, read-out: Solubility assessment 10 vol.): < 100 mg/mL
- solubility ([1]; isopropyl acetate, 50 °C, organic solvent or mixture, Isopropyl acetate, sample ID A4, read-out: Solubility assessment 20 vol.): < 50 mg/mL
- solubility ([1]; isopropyl acetate, 50 °C, organic solvent or mixture, Isopropyl acetate, sample ID A4, read-out: Solubility assessment 40 vol.): < 25 mg/mL
- solubility ([1]; isopropyl acetate, organic solvent or mixture, Isopropyl acetate, sample ID A4, read-out: Solubility assessment 60 vol.): < 16.7 mg/mL
- solubility ([1]; methanol, 50 °C, organic solvent or mixture, Methanol, sample ID A20, read-out: Solubility assessment 10 vol.): 50 to 100 mg/mL
- solubility ([1]; methanol, 50 °C, organic solvent or mixture, Methanol, sample ID A20, read-out: Solubility assessment 20 vol.): 50 to 100 mg/mL
- solubility ([1]; n-heptane, 50 °C, organic solvent or mixture, n-Heptane, sample ID A1, read-out: Solubility assessment 10 vol.): < 100 mg/mL
- solubility ([1]; n-heptane, 50 °C, organic solvent or mixture, n-Heptane, sample ID A1, read-out: Solubility assessment 20 vol.): < 50 mg/mL
- solubility ([1]; n-heptane, 50 °C, organic solvent or mixture, n-Heptane, sample ID A1, read-out: Solubility assessment 40 vol.): < 25 mg/mL
- solubility ([1]; n-heptane, organic solvent or mixture, n-Heptane, sample ID A1, read-out: Solubility assessment 60 vol.): < 16.7 mg/mL
- solubility ([1]; nitromethane, 50 °C, organic solvent or mixture, Nitromethane, sample ID A21, read-out: Solubility assessment 10 vol.): < 100 mg/mL
- solubility ([1]; nitromethane, 50 °C, organic solvent or mixture, Nitromethane, sample ID A21, read-out: Solubility assessment 20 vol.): < 50 mg/mL
- solubility ([1]; nitromethane, 50 °C, organic solvent or mixture, Nitromethane, sample ID A21, read-out: Solubility assessment 40 vol.): < 25 mg/mL
- solubility ([1]; nitromethane, organic solvent or mixture, Nitromethane, sample ID A21, read-out: Solubility assessment 60 vol.): < 16.7 mg/mL
- solubility ([1]; propyl acetate, 50 °C, organic solvent or mixture, Propyl acetate, sample ID A2, read-out: Solubility assessment 10 vol.): < 100 mg/mL
- solubility ([1]; propyl acetate, 50 °C, organic solvent or mixture, Propyl acetate, sample ID A2, read-out: Solubility assessment 20 vol.): < 50 mg/mL
- solubility ([1]; propyl acetate, 50 °C, organic solvent or mixture, Propyl acetate, sample ID A2, read-out: Solubility assessment 40 vol.): < 25 mg/mL
- solubility ([1]; propyl acetate, organic solvent or mixture, Propyl acetate, sample ID A2, read-out: Solubility assessment 60 vol.): < 16.7 mg/mL
- solubility ([1]; tetrahydrofuran, 50 °C, organic solvent or mixture, Tetrahydrofuran, sample ID A17, read-out: Solubility assessment 10 vol.): < 100 mg/mL
- solubility ([1]; tetrahydrofuran, 50 °C, organic solvent or mixture, Tetrahydrofuran, sample ID A17, read-out: Solubility assessment 20 vol.): < 50 mg/mL
- solubility ([1]; tetrahydrofuran, 50 °C, organic solvent or mixture, Tetrahydrofuran, sample ID A17, read-out: Solubility assessment 40 vol.): < 25 mg/mL
- solubility ([1]; tetrahydrofuran, organic solvent or mixture, Tetrahydrofuran, sample ID A17, read-out: Solubility assessment 60 vol.): < 16.7 mg/mL
- solubility ([1]; toluene, 50 °C, organic solvent or mixture, Toluene, sample ID A15, read-out: Solubility assessment 10 vol.): < 100 mg/mL
- solubility ([1]; toluene, 50 °C, organic solvent or mixture, Toluene, sample ID A15, read-out: Solubility assessment 20 vol.): < 50 mg/mL
- solubility ([1]; toluene, 50 °C, organic solvent or mixture, Toluene, sample ID A15, read-out: Solubility assessment 40 vol.): < 25 mg/mL
- solubility ([1]; toluene, organic solvent or mixture, Toluene, sample ID A15, read-out: Solubility assessment 60 vol.): < 16.7 mg/mL
- solubility ([1]; water, 50 °C, water, Water, sample ID A12, read-out: Solubility assessment 10 vol.): 50 to 100 mg/mL
- solubility ([1]; water, 50 °C, water, Water, sample ID A12, read-out: Solubility assessment 20 vol.): 50 to 100 mg/mL
- XRPD after storage at 25° C./97% RH for 1 week ([2]; 25° C./97% RH, 1 week): Form 3
- Solid form on prolonged exposure to high RH (>90%) ([2]; high RH (>90%), e.g. for 7 days): converted to the hydrate Form 3
SMILES: CCNCCc1ccc(CN(CC)c2cc(OC)ccc2[C@@H]2CCc3cc(O)ccc3C2)cc1.Cl.Cl [Sample 1]
- Solubility in water ([1]; water): highly soluble; also recorded: high solubility

— patent US11708318B2, “Polymorphic forms of RAD1901-2HCL” (Radius Pharmaceuticals, Inc., priority 2017, dated 2023)
